According to ChEMBL document CHEMBL1148887, “Design and synthesis of benzoazepinone-derived cyclic malonamides and aminoamides as potent gamma-secretase inhibitors” (Bioorg Med Chem Lett, 2007):

Legend:
Gamma-secretase [1] = test: Displacement of [3H]succinamide from gamma secretase in THP1 cell membranes; design: species or system Homo sapiens; conditions: thp-1
Gamma-secretase [2] = test: Inhibition of gamma secretase in APP-transfected CHO cells; assay type: cell-based, Homo sapiens
[3] = Fraction unbound ligand in Beagle dog at 0.5 mg/kg, po; assay type: ADME, organism-based, Canis lupus familiaris; design: dose 0.5 mg/kg, route oral; conditions: in vivo
[4] = Clearance in Beagle dog at 0.5 mg/kg, po; assay type: ADME, organism-based, Canis lupus familiaris; design: dose 0.5 mg/kg, route oral; conditions: in vivo
[5] = Cmax in Beagle dog at 0.5 mg/kg, po; assay type: ADME, organism-based, Canis lupus familiaris; design: dose 0.5 mg/kg, route oral; conditions: in vivo
[6] = Oral bioavailability in Beagle dog at 0.5 mg/kg, po; assay type: ADME, organism-based, Canis lupus familiaris; conditions: in vivo
[7] = Half life in Beagle dog at 0.5 mg/kg, po; assay type: ADME, organism-based, Canis lupus familiaris; design: dose 0.5 mg/kg, route oral; conditions: in vivo
Canis familiaris = test: Volume of distribution at steady state in Beagle dog at 0.5 mg/kg, po; assay type: ADME, organism-based, Canis lupus familiaris; design: dose 0.5 mg/kg, route oral; conditions: in vivo
Gamma-secretase [8] = test: Inhibition of gamma secretase-mediated beta amyloid production in NIH3T3 cells; assay type: cell-based, Homo sapiens

SMILES	Ki (Gamma-secretase [1]) [nM]	IC50 (Gamma-secretase [2]) [nM]	fraction unbound [3]	CL/F [4] [mL/min/kg]	Cmax [5] [nM]	bioavailability [6] [%]	half-life [7] [min]	Vdss (Canis familiaris) [L/kg]	IC50 (Gamma-secretase [8]) [nM]
CN1C(=O)[C@@H](NC(=O)C2(C(=O)NCc3cc(F)cc(F)c3)CCC2)N=C(c2ccccc2)c2ccccc21	13.5	115							
CC(C)CCNC(=O)C1(C(=O)N[C@H]2N=C(c3ccc(C(F)(F)F)cc3)c3ccccc3N(C)C2=O)CCC1	4.9	14	0.005	3.33	567	61	792	1.9	
CCCCNC(=O)C1(C(=O)N[C@H]2N=C(c3ccccc3)c3ccccc3N(C)C2=O)CCC1	11	20							
CC(C)CCNC(=O)C1(C(=O)N[C@@H]2C(=O)N(C)c3ccccc3-c3ccccc32)CCC1	4	15	0.005	3.33	172	23	318	0.9	
CC(C)CNC(=O)C1(C(=O)N[C@@H]2C(=O)N(C)c3ccccc3-c3ccccc32)CCC1	1.4	5.8	0.001	8.33	184	47	276	2.1	
CC(C)CNC(=O)C1(C(=O)N[C@H]2N=C(c3ccccc3)c3ccccc3N(C)C2=O)CCCC1	6.2	19.5							
CN1C(=O)[C@@H](NC(=O)C2(C(=O)NCCC3CCCC3)CCC2)N=C(c2ccc(C(F)(F)F)cc2)c2ccccc21	2.2	13							
CC(C)CC(F)(F)NC(=O)C1(C(=O)N[C@@H]2C(=O)N(C)c3ccccc3-c3ccccc32)CCC1	22	280							
CC(C)[C@H](O)NC(=O)C1(C(=O)N[C@@H]2C(=O)N(C)c3ccccc3-c3ccccc32)CCC1	3.9	15							
CC(C)C[C@H](O)NC(=O)C1(C(=O)N[C@H]2N=C(c3ccc(C(F)(F)F)cc3)c3ccccc3N(C)C2=O)CCC1	2.1	6.1	0.017	0.667	2980	84	390	0.2	6.1
CC(C)C[C@H](O)NC(=O)C1(C(=O)N[C@@H]2C(=O)N(C)c3ccccc3-c3ccccc32)CCC1	0.9	4.2							
CN1C(=O)[C@@H](NC(=O)C2(C(=O)NCCC3CCCC3)CCCC2)N=C(c2ccccc2)c2ccccc21	36								
CN1C(=O)[C@@H](NC(=O)C2(C(=O)NCc3cc(F)cc(F)c3)CCCC2)N=C(c2ccccc2)c2ccccc21	9.9	96							
CN1C(=O)[C@@H](NC(=O)C2(C(=O)N[C@H](O)C3CCCCC3)CCC2)N=C(c2ccc(C(F)(F)F)cc2)c2ccccc21	111	280							
CN1C(=O)[C@@H](NC(=O)C2(C(=O)N[C@@H](O)C3CCCCC3)CCC2)N=C(c2ccc(C(F)(F)F)cc2)c2ccccc21	3.1	11							
CN1C(=O)[C@@H](NC(=O)C2(C(=O)NCc3cccs3)CCCC2)N=C(c2ccccc2)c2ccccc21	41	19							
CCCNC(=O)C(CC)(CC)C(=O)N[C@H]1N=C(c2ccccc2)c2ccccc2N(C)C1=O	227								
CC(C)[C@H](O)NC(=O)C1(C(=O)N[C@H]2N=C(c3ccc(C(F)(F)F)cc3)c3ccccc3N(C)C2=O)CCC1	1.1	6.7							
CCCNC(=O)C1(C(=O)N[C@H]2N=C(c3ccccc3)c3ccccc3N(C)C2=O)CCC1	15	82							
CC(C)CNC(=O)C1(C(=O)N[C@H]2N=C(c3ccc(C(F)(F)F)cc3)c3ccccc3N(C)C2=O)CCC1	1.2	28							
CC(C)CNC(=O)C1(C(=O)N[C@@H]2C(=O)N(C)c3ccccc3-c3ccccc32)CCCC1	3	26.1							
CCNC(=O)C(CC)(CC)C(=O)N[C@H]1N=C(c2ccccc2)c2ccccc2N(C)C1=O	1000								
CC(C)CNC(=O)C1(C(=O)N[C@H]2N=C(c3ccc(C(F)(F)F)cc3)c3ccccc3N(C)C2=O)CCCC1	2	12.5							
CC(C)CNC(=O)C1(C(=O)N[C@H]2N=C(c3ccccc3)c3ccccc3N(C)C2=O)CCC1	3.5	21	0.004	21.7	84	42	318	3.1	
CN1C(=O)[C@@H](NC(=O)C2(C(=O)NCCC3CCCC3)CCC2)c2ccccc2-c2ccccc21	1.3	21	0.002	5	365	71	804	2.9	
